According to PMC5719405, “Sex-related pharmacokinetic differences and mechanisms of metapristone (RU486 metabolite)” (Scientific Reports, 2017):
Where two headings read alike, the source gives them in different places.

Legend:
[1] = parameters: method as in PMID 22210121; conditions: cited from earlier work
[2] = Metapristone metabolism in rat liver microsomes in the presence of specific CYP450 inhibitors; conditions: inhibitor 10 µM, metapristone 9 µM, male or female rat liver microsomes, 120 min
[3] = cited from earlier work

In the case of `CC#C[C@]1(O)CC[C@H]2[C@@H]3CCC4=CC(=O)CCC4=C3[C@@H](c3ccc(N(C)C)cc3)C[C@@]21C` [mifepristone], the “plasma protein binding rate” value [1] is given as 90%.

In the case of `C=C[C@H]1C[N@@]2CC[C@H]1C[C@@H]2[C@@H](O)c1ccnc2ccc(OC)cc12` [quinidine], the “effect of CYP inhibitor on metabolism rate of metapristone versus controls” value [2] is reported as “No significant differences”.

In the case of `O=c1cc(-c2ccccc2)oc2c1ccc1ccccc12` [α-naphthoflavone], the “effect of CYP inhibitor on metabolism rate of metapristone versus controls” value [2] is reported as “significantly prevented metapristone from degradation”.

In the case of `CC[C@H]1OC(=O)[C@@](C)(F)C(=O)[C@H](C)[C@@H](O[C@@H]2O[C@H](C)C[C@H](N(C)C)[C@H]2O)[C@](C)(OC)C[C@@H](C)C(=O)[C@H](C)[C@H]2N(CCCCn3cc(-c4cccc(N)c4)nn3)C(=O)O[C@]12C` [Solithromycin], the V d [3] is listed as over 500 L.

For `CC(=O)N1CCN(c2ccc(OCC3COC(Cn4ccnc4)(c4ccc(Cl)cc4Cl)O3)cc2)CC1` (centres unmarked) [ketoconazole], the “effect of CYP inhibitor on metabolism rate of metapristone versus controls” value [2] was “significantly prevented metapristone from degradation”.

For `CCCn1c(=O)c2[nH]c(C34CC5CC(CC3C5)C4)nc2n(CCC)c1=O` [Rolofylline], the V d [3] is listed as 239 L.

With `Nc1ccc(S(=O)(=O)Nc2ccnn2-c2ccccc2)cc1` [sulfaphenazole] the “effect of CYP inhibitor on metabolism rate of metapristone versus controls” value [2] was “No significant differences”.

For `CCN(CC)CCCC(C)Nc1ccnc2cc(Cl)ccc12` (centres unmarked) [Chloroquine], the V d ([3]; literature example, no reference given) is given as 15,000 L.
